Reference: patent publication US11634396B2 (priority 2021, dated 2023)
Where two headings read alike, the source gives them in different places.

Target: human mOR (Homo sapiens (Human), UniProt P35372)
Assay: cell-based
[1] = CHO Tag-lite human mOR stable cell line, forskolin 4 μM and DAMGO at EC90, read-out: mOR cAMP Antagonist Assay IC50

Chain of human mOR (P35372 whole entry): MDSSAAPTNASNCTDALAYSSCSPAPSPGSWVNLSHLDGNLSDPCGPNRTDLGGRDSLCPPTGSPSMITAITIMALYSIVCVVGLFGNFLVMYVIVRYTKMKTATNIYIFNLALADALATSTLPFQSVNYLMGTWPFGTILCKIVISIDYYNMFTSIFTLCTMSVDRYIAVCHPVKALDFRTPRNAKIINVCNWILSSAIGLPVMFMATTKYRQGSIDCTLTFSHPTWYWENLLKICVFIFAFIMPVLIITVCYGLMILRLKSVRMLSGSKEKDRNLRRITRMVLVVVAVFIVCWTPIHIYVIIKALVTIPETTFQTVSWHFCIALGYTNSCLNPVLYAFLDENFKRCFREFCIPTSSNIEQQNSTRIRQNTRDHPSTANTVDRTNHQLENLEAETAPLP

| SMILES | IC50 [µM] | IC50 [1] [µM] |
| --- | --- | --- |
| CN(C)[C@H](CNC(=O)C[C@H](c1cccnc1)C1(C(F)(F)F)CC1)Cc1ccc(O)c(F)c1Cl [Compound 257, (R)-N-((S)-3-(2-chloro-3-fluoro-4-hydroxyphenyl)-2-(dimethylamino)propyl)-3-(pyridin-3-yl)-3-(1-(trifluoromethyl)cyclopropyl)propanamide] | < 0.3 | – |
| CN(C)[C@H](CNC(=O)C[C@@H](c1cccnc1)C1(C(F)(F)F)CC1)Cc1ccc2[nH]c(=O)oc2c1 [Compound 176, (S)-N-((S)-2-(dimethylamino)-3-(2-oxo-2,3-dihydrobenzo[d]oxazol-6-yl)propyl)-3-(pyridin-3-yl)-3-(1-(trifluoromethyl)cyclopropyl)propanamide] | – | < 0.3 |
| CN(C)[C@H](CNC(=O)C[C@H](c1cccnc1)C1CC1)Cc1ccc(O)cc1 [Compound 308, (S)-3-cyclopropyl-N-((S)-2-(dimethylamino)-3-(4-hydroxyphenyl)propyl)-3-(pyridin-3-yl)propanamide] | – | 0.3 to 3 |
| CN(C)[C@H](CNC(=O)C[C@@H](CC1CC1)c1cncnc1)Cc1ccc(O)c(Cl)c1 [Compound 282, (R)-N-((S)-3-(3-chloro-4-hydroxyphenyl)-2-(dimethylamino)propyl)-4-cyclopropyl-3-(pyrimidin-5-yl)butanamide] | < 0.3 | – |
| Cc1ccc([C@@H](CC(=O)NC[C@H](Cc2ccc(C(N)=O)c(F)c2)N(C)C)C2(C(F)(F)F)CC2)s1 [Compound 53, 4-((S)-2-(dimethylamino)-3-((S)-3-(5-methylthiophen-2-yl)-3-(1-(trifluoromethyl)cyclopropyl)propanamido)propyl)-2-fluorobenzamide] | < 0.3 | – |
| Cc1ccc([C@@H](CC(=O)NC[C@H](Cc2ccc3[nH]ncc3c2)N(C)C)C2(C(F)(F)F)CC2)cn1 [Compound 211, (R)-N-((S)-2-(dimethylamino)-3-(1H-indazol-5-yl)propyl)-3-(6-methylpyridin-3-yl)-3-(1-(trifluoromethyl)cyclopropyl)propanamide] | < 0.3 | – |
| CN(C)[C@H](CNC(=O)C[C@H](c1ccncc1)C1(C(F)(F)F)CC1)Cc1ccc(O)cc1Cl [Compound 261, (R)-N-((S)-3-(2-chloro-4-hydroxyphenyl)-2-(dimethylamino)propyl)-3-(pyridin-4-yl)-3-(1-(trifluoromethyl)cyclopropyl)propanamide] | < 0.3 | – |
| Cc1cc(O)ccc1C[C@@H](CNC(=O)C[C@H](c1cncs1)C1CC1)N(C)C [Compound 264, (S)-3-cyclopropyl-N-((S)-2-(dimethylamino)-3-(4-hydroxy-2-methylphenyl)propyl)-3-(thiazol-5-yl)propanamide] | < 0.3 | – |
| CN(C)[C@H](CNC(=O)C[C@@H](CC1CC1)c1cncnc1)Cc1ccc(C(N)=O)c(F)c1 [Compound 64, 4-((S)-3-((R)-4-cyclopropyl-3-(pyrimidin-5-yl)butanamido)-2-(dimethylamino)propyl)-2-fluorobenzamide] | – | < 0.3 |
| CN(C)[C@H](CNC(=O)C[C@@H](CC1CC1)c1cncnc1)Cc1ccc(O)cc1 [Compound 307, (R)-4-cyclopropyl-N-((S)-2-(dimethylamino)-3-(4-hydroxyphenyl)propyl)-3-(pyrimidin-5-yl)butanamide] | < 0.3 | – |
| CN(C)[C@H](CNC(=O)C[C@H](c1ccncc1)C1CC1)Cc1ccc(O)c(Cl)c1 [Compound 277, (S)-N-((S)-3-(3-chloro-4-hydroxyphenyl)-2-(dimethylamino)propyl)-3-cyclopropyl-3-(pyridin-4-yl)propanamide] | < 0.3 | – |
| Cc1cncc([C@@H](CC(=O)NC[C@H](Cc2ccc(O)cc2)N(C)C)C2(C(F)(F)F)CC2)c1 [Compound 300, (R)-N-((S)-2-(dimethylamino)-3-(4-hydroxyphenyl)propyl)-3-(5-methylpyridin-3-yl)-3-(1-(trifluoromethyl)cyclopropyl)propanamide] | < 0.3 | – |
| CN(C)[C@H](CNC(=O)C[C@H](c1ccoc1)C1(C(F)(F)F)CC1)Cc1ccc(C(N)=O)c(F)c1 [Compound 51, 4-((S)-2-(dimethylamino)-3-((R)-3-(furan-3-yl)-3-(1-(trifluoromethyl)cyclopropyl)propanamido)propyl)-2-fluorobenzamide] | < 0.3 | – |
| CNC(=O)c1cc(C)c(C[C@@H](CNC(=O)C[C@@H](CC(C)C)c2ccccn2)N(C)C)c(C)c1 [Compound 108, 4-((S)-2-(dimethylamino)-3-((R)-5-methyl-3-(pyridin-2-yl)hexanamido)propyl)-N,3,5-trimethylbenzamide] | – | > 3 |
| CNC(=O)c1cc(C)c(C[C@@H](CNC(=O)C[C@H](c2ccccc2)C2(C(F)(F)F)CC2)N(C)C)cc1F [Compound 144, 4-((S)-2-(dimethylamino)-3-((R)-3-phenyl-3-(1-(trifluoromethyl)cyclopropyl)propanamido)propyl)-2-fluoro-N,5-dimethylbenzamide] | > 3 | – |
| CNC(=O)c1ccc(C[C@@H](CNC(=O)C[C@H](c2ccc(F)cc2)C2(C(F)(F)F)CC2)N(C)C)c(C)c1 [Compound 128, 4-((S)-2-(dimethylamino)-3-((R)-3-(4-fluorophenyl)-3-(1-(trifluoromethyl)cyclopropyl)propanamido)propyl)-N,3-dimethylbenzamide] | < 0.3 | – |

| SMILES | IC50 [µM] | IC50 [1] [µM] |
| --- | --- | --- |
| Cc1ncc([C@@H](CC(=O)NC[C@H](Cc2ccc(C(N)=O)cc2)N(C)C)C2(C(F)(F)F)CC2)cn1 [Compound 79, 4-((S)-2-(dimethylamino)-3-((R)-3-(2-methylpyrimidin-5-yl)-3-(1-(trifluoromethyl)cyclopropyl)propanamido)propyl)benzamide] | < 0.3 | – |
| Cc1cncc([C@H](CC(=O)NC[C@H](Cc2ccc3[nH]ncc3c2)N(C)C)C2(C(F)(F)F)CC2)c1 [Compound 203, (S)-N-((S)-2-(dimethylamino)-3-(1H-indazol-5-yl)propyl)-3-(5-methylpyridin-3-yl)-3-(1-(trifluoromethyl)cyclopropyl)propanamide] | 0.3 to 3 | – |
| CN(C)[C@H](CNC(=O)CC(c1ccncc1)C1(C(F)(F)F)CC1)Cc1ccc(C(N)=O)c(F)c1Cl (stereo partly drawn) [Compound 19, 3-chloro-4-[(2S)-2-(dimethylamino)-3-[3-(pyridin-4-yl)-3-[1-(trifluoromethyl)cyclopropyl]propanamido]propyl]-2-fluorobenzamide] | < 0.3 | – |
| Cc1cc(O)cc(C)c1C[C@@H](CNC(=O)C[C@@H](c1cccnc1)C1(C(F)(F)F)CC1)N(C)C [Compound 243, (S)-N-((S)-2-(dimethylamino)-3-(4-hydroxy-2,6-dimethylphenyl)propyl)-3-(pyridin-3-yl)-3-(1-(trifluoromethyl)cyclopropyl)propanamide] | < 0.3 | – |
| Cc1c(C[C@@H](CNC(=O)C[C@H](c2cccnc2)C2(C(F)(F)F)CC2)N(C)C)ccc2[nH]ncc12 [Compound 197, (R)-N-((S)-2-(dimethylamino)-3-(4-methyl-1H-indazol-5-yl)propyl)-3-(pyridin-3-yl)-3-(1-(trifluoromethyl)cyclopropyl)propanamide] | < 0.3 | – |
| Cc1cc(O)ccc1C[C@@H](CNC(=O)CC(c1ccncc1)C1(C(F)(F)F)CC1)N(C)C (stereo partly drawn) [Compound 270, N-((S)-2-(dimethylamino)-3-(4-hydroxy-2-methylphenyl)propyl)-3-(pyridin-4-yl)-3-(1-(trifluoromethyl)cyclopropyl)propanamide] | < 0.3 | – |
| CN(C)[C@H](CNC(=O)C[C@H](c1cncs1)C1(C(F)(F)F)CC1)Cc1ccc(C(N)=O)c(F)c1F [Compound 2, 4-((S)-2-(dimethylamino)-3-((S)-3-(thiazol-5-yl)-3-(1-(trifluoromethyl)cyclopropyl)propanamido)propyl)-2,3-difluorobenzamide] | – | < 0.3 |
| CC(C)C[C@H](CC(=O)NC[C@H](Cc1ccc(O)cc1)N(C)C)c1cccnc1 [Compound 297, (R)-N-((S)-2-(dimethylamino)-3-(4-hydroxyphenyl)propyl)-5-methyl-3-(pyridin-3-yl)hexanamide] | < 0.3 | – |
| CC(C)[C@H](CC(=O)NC[C@H](Cc1ccc(O)c(Cl)c1)N(C)C)c1cccnc1 [Compound 276, (S)-N-((S)-3-(3-chloro-4-hydroxyphenyl)-2-(dimethylamino)propyl)-4-methyl-3-(pyridin-3-yl)pentanamide] | < 0.3 | – |
| CN(C)[C@H](CNC(=O)C[C@@H](c1ccncc1)C1(C(F)(F)F)CC1)Cc1ccc2[nH]ncc2c1 [Compound 208, (S)-N-((S)-2-(dimethylamino)-3-(1H-indazol-5-yl)propyl)-3-(pyridin-4-yl)-3-(1-(trifluoromethyl)cyclopropyl)propanamide] | < 0.3 | – |
| CN(C)[C@H](CNC(=O)CC(c1ccc(Cl)cn1)C1(C(F)(F)F)CC1)Cc1ccc(C(N)=O)c(F)c1 (stereo partly drawn) [Compound 69, 4-((2S)-3-(3-(5-chloropyridin-2-yl)-3-(1-(trifluoromethyl)cyclopropyl)propanamido)-2-(dimethylamino)propyl)-2-fluorobenzamide] | < 0.3 | – |
| CNC(=O)c1ccc(C[C@@H](CNC(=O)CC(c2cccnc2)C2(C(F)(F)F)CC2)N(C)C)c(Cl)c1 (stereo partly drawn) [Compound 119, 3-chloro-4-((2S)-2-(dimethylamino)-3-(3-(pyridin-3-yl)-3-(1-(trifluoromethyl)cyclopropyl)propanamido)propyl)-N-methylbenzamide] | < 0.3 | – |
| Cc1ncc([C@@H](CC(=O)NC[C@H](Cc2ccc(C(N)=O)c(F)c2C)N(C)C)C2(C(F)(F)F)CC2)cn1 [Compound 44, 4-((S)-2-(dimethylamino)-3-((R)-3-(2-methylpyrimidin-5-yl)-3-(1-(trifluoromethyl)cyclopropyl)propanamido)propyl)-2-fluoro-3-methylbenzamide] | < 0.3 | – |
| Cc1ccc([C@@H](CC(=O)NC[C@H](Cc2ccc(O)cc2C)N(C)C)C2(C(F)(F)F)CC2)o1 [Compound 266, (S)-N-((S)-2-(dimethylamino)-3-(4-hydroxy-2-methylphenyl)propyl)-3-(5-methylfuran-2-yl)-3-(1-(trifluoromethyl)cyclopropyl) propanamide] | < 0.3 | – |
| CNC(=O)c1ccc(C[C@@H](CNC(=O)C[C@H](c2ccc(C)nc2)C2(C(F)(F)F)CC2)N(C)C)c(Cl)c1 [Compound 113, 3-chloro-4-((S)-2-(dimethylamino)-3-((R)-3-(6-methylpyridin-3-yl)-3-(1-(trifluoromethyl)cyclopropyl)propanamido)propyl)-N-methylbenzamide] | < 0.3 | – |
